Data published in patent US5629198A (priority 1991, dated 1997).

Key:
MOLT-4/HTLV-IIIB = experiment: Killing effect on cells persistently infected with HIV (Test Example 1), trypan blue; format: cell-based, human; settings: for killing effect on HIV-infected cells: summary
Method: (§1) The cell killing effects of test substances were determined using a cell strain persistently infected with HIV in MOLT-4 cells and MOLT-4 cells.
(§2) MOLT4/HTLV-IIIB, MOLT4/ARV and MOLT4 cell strains were separately inoculated in proportions of 4×10^4 cells/well (200 μl) on a 96-well plate, and the above test substances in various concentrations were separately added in an amount of 20 μl thereto. After each cell sample was cultured for 3 days at 37° C. in the presence of 5% CO2, the culture was diluted to a triple or quadruple amount, thereby counting the number of living cells by a trypan blue dye exclusion test. As a control, 20 μl of PBS were added in place of each test substance. Each numerical value is expressed in terms of the percentage of living cells to the control.

MOLT-4/ARV = experiment: as above; format: cell-based, human; settings: 3 days
Method: as §1, §2

HTLV-IIIB in MT-4 cells = experiment: Anti-HIV effect: TCID50 of infectious virus from infected MT-4 cells (Test Example 5); format: cell-based, HIV (HTLV-IIIB); settings: for TCID50 (quantity of infectious virus): 4 days, positive control 3.31 × 10^7; for proliferation inhibiting effect on HIV: summary
Method: The inhibitory effects of test substances on the cytopathy and HIV antigen production of MT-4 cells due to HIV infection were determined.
MT-4 cells belonging to a cell strain persistently infected with HTLV-1 are high in sensitivity to HIV and promptly die out when infected. MT-4/HIV cells which are MT-4 cells infected with HIV are used for screening anti-HIV agents making good use of this nature.
After MT-4 cells (1.2×10^7 cells) were infected for 2 hours at 37° C. with 3.2 ml of HTLV-IIIB (10^7 TCID50 /ml) obtained from a culture supernatant of a cell strain persistently infected with HIV, i.e., […], the cells were washed. After the cells were then inoculated on a 48-well microplate in a proportion of 1×10^5 cells/well, the test substances were separately added in an amount of 100 μl. As a negative control, there was used a culture obtained by adding 3.2 ml of a culture supernatant after culturing MOLT-4 cells for 3 days to MT-4 cells (4.7×10^6 cells), conducting culture for 2 hours at 37° C., washing the cells in the same manner as described above, inoculating them in a proportion of 1×10^5 cells/well and adding PBS in place of the test substances.
Upon elapsed time of 4 days after the culture, each supernatant was assayed on a P24gag protein based on an EIA kit produced by Abbott Labs, and the number of living cells was counted by the Trypan Blue dye exclusion method, and moreover, TCID50 indicative of an actual quantity of infectious virus was calculated.

MOLT-4 = experiment: Killing effect on uninfected cells (Test Example 1), trypan blue; format: cell-based, human; settings: 3 days
Method: as §1, §2

[1] = tested on: cells persistently infected with HIV; settings: cited from earlier work
[2] = in vivo; cited from earlier work
[3] = tested on: Molt-4/C18 cells infected with Molt-4/HTLV-IIIB culture supernatant; experiment: Inhibiting effect on cytopathy, MTT assay (Test Example 8 (2)); format: cell-based; settings: Homo sapiens, MOLT-4, 96 h, read-out: Number of living cells
Method: (2) The inhibiting effects of test substances on the formation of multinucleated giant cells and on cytopathy in a Molt-4/C18 cell-infected system were investigated.
Molt-4/C18 cells in a logarithmic growth phase were inoculated in a proportion of 2×10^4 cells/well (20 μl) on a 96-well flat-bottom plate, and 30 μl of a culture supernatant of Molt-4/HTLV-IIIB cells were added. Then, solutions of the test substances in various concentrations were separately added in an amount of 50 μl, followed by their culture at 37° C. under conditions of 5% CO2. To wells for a positive control, 50 μl of a culture medium were added in place of the solution of each test substance, while to wells for a negative control, 30 μl of the culture medium were added instead of the culture supernatant. Defining the day the culture was started as Day 0, the culture was continuously conducted for 4 days to observe a state of formation of multinucleated giant cells and to count the number of living cells by the MTT assay.

MT-4/LAV-infected system = settings: cited from earlier work
[4] = Homo sapiens, MOLT-4, 72 h, 1 μM, read-out: living cells (percentage to the control)

C=CC1=C(C)c2cc3[n-]c(cc4[n-]c(cc5nc(cc1n2)C(C)=C5C=C)c(C)c4CCC(=O)O)c(CCC(=O)O)c3C.[Cl-].[Fe+3] [Hemin]
living cells (percentage to the control) (MOLT-4/HTLV-IIIB; 10 μM, 3 days): 100% | living cells (percentage to the control) (MOLT-4/HTLV-IIIB; 40 μM, 3 days): 90% | killing effect on HIV-infected cells (MOLT-4/HTLV-IIIB): no killing effect on HIV-infected cells | living cells (percentage to the control) (MOLT-4/ARV; 10 μM): 94% | living cells (percentage to the control) (MOLT-4/ARV; 40 μM): 93% | TCID50 (quantity of infectious virus) (HTLV-IIIB in MT-4 cells; 10 μM): 1.52 × 10^7 TCID50 /ml | proliferation inhibiting effect on HIV (HTLV-IIIB in MT-4 cells): have a proliferation inhibiting effect on HIV | living cells (percentage to the control) (MOLT-4; 10 μM): 98% | living cells (percentage to the control) (MOLT-4; 40 μM): 99%

Cc1cn([C@H]2C[C@H](N=[N+]=[N-])[C@@H](CO)O2)c(=O)[nH]c1=O [AZT, 3'-azido-3'-deoxythymidine]
viability at 1 µM (MOLT-4/HTLV-IIIB; Homo sapiens, MOLT-4, 72 h, 1 μM, 3 days, read-out: living cells (percentage to the control)): 71% | viability at 1 µM (MOLT-4/ARV; [4]): 82% | TCID50 (quantity of infectious virus) (HTLV-IIIB in MT-4 cells; 1 μM): 5.94 × 10^4 TCID50 /ml | effect on cells already infected with HIV [1]: no effect on cells already infected with HIV | side effects [2]: a myelodepresant effect is remarkably observed as a side effect in addition to headache and gastrointestinal disorders | viability at 25 µM ([3]; 25 (μM), 4 days, positive control 27): 84% | viability at 0.004 µM [3]: 42% | viability at 0.02 µM [3]: 69% | viability at 0.1 µM [3]: 79% | viability at 0.5 µM [3]: 84% | viability at 1 µM (MOLT-4; [4]): 55%

C=CC1=C(C)c2cc3[nH]c(cc4nc(cc5[nH]c(cc1n2)c(C)c5CCC(=O)O)C(CCC(=O)O)=C4C)c(C)c3C=C [protoporphyrin]
killing effect on HIV-infected cells (MOLT-4/HTLV-IIIB): no killing effect on HIV-infected cells | proliferation inhibiting effect on HIV (HTLV-IIIB in MT-4 cells): have a proliferation inhibiting effect on HIV | anti-HIV activity (MT-4/LAV-infected system): exhibits an anti-HIV activity
